Reference: patent US6461997B1, “Triazole sulfones having herbicidal activity” (Monsanto Technology LLC, priority 1999, dated 2002)

What was measured:
SASKR (russian thistle) = test: Pre-plant incorporated (PPI) herbicidal activity, cool season; assay type: in vivo, Salsola kali; conditions: for Percent inhibition SASKR: weed, PPI application
Experimental: (§1) In another set of tests, the pre-plant incorporated (PPI) activity of compounds of this invention was evaluated on the same species as for the pre-emergence tests described above. In the PPI tests the following procedure, designed to simulate PPI application, was used.
(§2) A pre-prepared topsoil mixture (described above) was placed in a pot and compacted to a depth of 1.0 to 1.25 cm from the top of the pot. Seeds of each of several monocotyledonous and dicotyledonous annual plant species were placed on top of the soil. A sufficient quantity of soil to cover the seeds and level fill the pot was weighed into an open container. A known amount of the test compound was dissolved or suspended in an organic solvent and applied by spraying to this cover soil. The cover soil was thoroughly mixed to distribute the test compound throughout the cover soil, and was then applied as a cover layer over the seeds. Untreated soil was used as a cover layer for control pots. After treatment the plants were placed in a greenhouse where they received 0.64 cm of overhead irrigation. All subsequent watering consisted of a light overhead mist and/or subirrigation as needed for germination and growth. Tables 9 and 10 below relate to warm season plant species which were placed after pre-emergence treatment in a greenhouse with a 30/21° C. day/night temperature regime. Tables 11 and 12 below relates to cool season plant species placed after pre-emergence treatment in a greenhouse or growth chamber with an 18/13° C. day/night temperature regime. Only the compounds of Examples 1, 6, 8, 11, 13 and 15-20 were included in PPI tests.
(§3) Approximately 14 days after planting and treating, the plants were observed and herbicidal efficacy recorded as percent inhibition by comparison with untreated plants.

[1] = system: BRAPP (broadleaf signalgrass); test: Pre-plant incorporated (PPI) herbicidal activity, warm season; assay type: in vivo, Brachiaria platyphylla; conditions: for Percent inhibition BRAPP: PPI application
Experimental: as §1, §2, §3

[2] = system: CIRAR (canada thistle (seedling)); test: Pre-emergence herbicidal activity, warm season; assay type: in vivo, Cirsium arvense; conditions: GR80 = lowest tested rate (300, 100, 30, 10 g/ha) with 80% or greater inhibition; approx. 14 days after treating; 30/21° C.
Method in brief: (§4)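 Seeds sown in sterilised fertilised topsoil received surface-applied compound in 50:50 acetone/water, typically at 300, 100, 30 and 10 g/ha, then greenhouse-grown at 30/21° C (warm-season species) or 18/13° C (cool-season species). Percent inhibition versus untreated plants was scored at about 14 days, giving GR80; an asterisk marks activity short of 80% at the top rate.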

[3] = system: BRAPP (broadleaf signalgrass); test: Pre-emergence herbicidal activity, warm season; assay type: in vivo, Brachiaria platyphylla; conditions: GR80 = lowest tested rate (300, 100, 30, 10 g/ha) with 80% or greater inhibition; approx. 14 days after treating; 30/21° C.
Method in brief: (§5)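 GR80 values derive from percent inhibition relative to untreated plants, read roughly 14 days after sowing and pre-emergence soil-surface treatment (compound in 50:50 acetone/water; rates typically 10, 30, 100, 300 g/ha). Warm-season weeds grew at 30/21° C day/night, cool-season ones at 18/13° C; an asterisk marks activity without reaching 80% at the highest rate.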

SOLNI (black nightshade) = test: Pre-plant incorporated (PPI) herbicidal activity, warm season; assay type: in vivo, Solanum nigrum; conditions: for Percent inhibition SOLNI: PPI application
Experimental: as §1, §2, §3

[4] = system: SORHA (johnsongrass (seedling)); test: Pre-emergence herbicidal activity, warm season; assay type: in vivo, Sorghum halepense; conditions: GR80 = lowest tested rate (300, 100, 30, 10 g/ha) with 80% or greater inhibition; approx. 14 days after treating; 30/21° C.
Method in brief: as §5

[5] = system: CHEAL (common lambsquarters); test: Pre-emergence herbicidal activity, warm season; assay type: in vivo, Chenopodium album; conditions: GR80 = lowest tested rate (300, 100, 30, 10 g/ha) with 80% or greater inhibition; approx. 14 days after treating; 30/21° C.
Method in brief: as §4

[6] = system: CHEAL (common lambsquarters); test: Pre-plant incorporated (PPI) herbicidal activity, warm season; assay type: in vivo, Chenopodium album; conditions: for Percent inhibition CHEAL: PPI application
Experimental: as §1, §2, §3

PANDI (fall panicum) = test: Pre-emergence herbicidal activity, warm season; assay type: in vivo, Panicum dichotomiflorum; conditions: GR80 = lowest tested rate (300, 100, 30, 10 g/ha) with 80% or greater inhibition; approx. 14 days after treating; 30/21° C.
Method in brief: as §5

[7] = system: AGSST (creeping bentgrass); test: Pre-plant incorporated (PPI) herbicidal activity, cool season; assay type: in vivo, Agrostis stolonifera; conditions: for Percent inhibition AGSST: weed, PPI application
Experimental: as §1, §2, §3

wheat (TRZAW) = test: Selectivity test, PPI, cool season crop; assay type: in vivo, Triticum aestivum; conditions: PPI application
Experimental: as §2, §3
Additional pre-emergence and PPI tests were conducted by the procedures described above, on warm and cool season weed species in the presence of crop species, to assess herbicidal selectivity. Crop species included in warm season tests were corn (Zea mays, ZEAMX), rice (Oryza sativa, ORYSA) and soybean (Glycine max, GLYMX). Crop species included in cool season tests were wheat (Triticum aestivum, TRZAW), barley (Hordeunm vulgare, HORVX) and oilseed rape (Brassica napus, BRSNS).
Tables 15 and 16 relate to pre-emergence and PPI tests respectively on warm season species. Table 17 relates to pre-emergence tests on cool season species.

[8] = pre-plant incorporated, lowest tested rate with 80% or greater inhibition, about 14 days
[9] = pre-plant incorporated, GR80 = lowest tested rate with 80% or greater inhibition, approx. 14 days after treating, 30/21° C.

## CCN(CC)C(=O)n1cnc(S(=O)(=O)C(F)(F)C(=O)c2ccccc2)n1 [Example 6]
SASKR (russian thistle); [8]
  PPI activity GR80, SASKR: 300 g/ha
[1]; [8]
  PPI activity GR80, BRAPP: 300 g/ha
[2]
  Pre-emergence activity (GR80) CIRAR: 300 g/ha
[3]
  Pre-emergence activity (GR80) BRAPP: * (activity observed, at least at highest rate, but <80% inhibition)
SOLNI (black nightshade); [9]
  PPI activity (GR80) SOLNI: 100 g/ha
[4]
  Pre-emergence activity (GR80) SORHA: 100 g/ha
[5]
  Pre-emergence activity (GR80) CHEAL: 300 g/ha
[6]; [9]
  PPI activity (GR80) CHEAL: 100 g/ha
PANDI (fall panicum)
  Pre-emergence activity (GR80) PANDI: 300 g/ha
[7]; [8]
  PPI activity GR80, AGSST: 100 g/ha

## CCN(CC)C(=O)n1cnc(S(=O)(=O)C(F)(F)SCc2ccccc2)n1 [Example 10]
SASKR (russian thistle); 10 g/ha
  Percent inhibition SASKR: 10%
SASKR (russian thistle); 30 g/ha
  Percent inhibition SASKR: 20%
SASKR (russian thistle); 100 g/ha
  Percent inhibition SASKR: 90%
SASKR (russian thistle); 300 g/ha
  Percent inhibition SASKR: 100%
SASKR (russian thistle); 900 g/ha
  Percent inhibition SASKR: 100%
[1]; 10 g/ha
  Percent inhibition BRAPP: 0%
[1]; 30 g/ha
  Percent inhibition BRAPP: 20%
[1]; 100 g/ha
  Percent inhibition BRAPP: 70%
[1]; 300 g/ha
  Percent inhibition BRAPP: 100%
[1]; 900 g/ha
  Percent inhibition BRAPP: 100%
[2]
  Pre-emergence activity (GR80) CIRAR: 300 g/ha
[3]
  Pre-emergence activity (GR80) BRAPP: 300 g/ha
SOLNI (black nightshade); 10 g/ha
  Percent inhibition SOLNI: 20%
SOLNI (black nightshade); 30 g/ha
  Percent inhibition SOLNI: 60%
SOLNI (black nightshade); 100 g/ha
  Percent inhibition SOLNI: 100%
SOLNI (black nightshade); 300 g/ha
  Percent inhibition SOLNI: 80%
SOLNI (black nightshade); 900 g/ha
  Percent inhibition SOLNI: 100%
[4]
  Pre-emergence activity (GR80) SORHA: 100 g/ha
[5]
  Pre-emergence activity (GR80) CHEAL: 300 g/ha
Wheat (TRZAW); 10 g/ha
  Percent inhibition TRZAW: 0%
Wheat (TRZAW); 30 g/ha
  Percent inhibition TRZAW: 0%
Wheat (TRZAW); 100 g/ha
  Percent inhibition TRZAW: 0%
Wheat (TRZAW); 300 g/ha
  Percent inhibition TRZAW: 10%
Wheat (TRZAW); 900 g/ha
  Percent inhibition TRZAW: 20%
[6]; 10 g/ha
  Percent inhibition CHEAL: 30%
[6]; 30 g/ha
  Percent inhibition CHEAL: 60%
[6]; 100 g/ha
  Percent inhibition CHEAL: 60%
[6]; 300 g/ha
  Percent inhibition CHEAL: 100%
[6]; 900 g/ha
  Percent inhibition CHEAL: 100%
PANDI (fall panicum)
  Pre-emergence activity (GR80) PANDI: 300 g/ha
[7]; 10 g/ha
  Percent inhibition AGSST: 90%
[7]; 30 g/ha
  Percent inhibition AGSST: 70%
[7]; 100 g/ha
  Percent inhibition AGSST: 100%
[7]; 300 g/ha
  Percent inhibition AGSST: 100%
[7]; 900 g/ha
  Percent inhibition AGSST: 100%
